Experimental data published in patent publication US20200354327A1, “COMPOUND HAVING STAT3 INHIBITORY ACTIVITY AND USE THEREOF” (CYTUS H&B CO., LTD., priority 2017, published 2020).

Columns and labels:
[1] = biological target: STAT3 (Homo sapiens, UniProt P40763); assay: STAT3 dimerization (STAT3-Flag / STAT3-HA, immunoprecipitation and western blot in HEK293T); format: cell-based; set-up: Flag; HA; expressed in transfected cells; host or cells: HEK293T
[2] = tested on: STAT3; assay: Western blot analysis of the 13 selected compounds; format: cell-based; details: among the 13 selected compounds
Protocol: Western blot analysis was performed (Jung J E, et al. FASEB J. 19, 1296-1298 (2005)). The cells were washed two times with PBS and suspended in the lysate (50 mM Tris-HCl, pH 7.4, 350 mM NaCl, 1% Triton X-100, 0.5% Nonidet P-40, 10% glycerol, 0.1% SDS, 1 mM EDTA, 1 mM EGTA, 1 mM Na3VO4, 1 mM PMSF, protease and phosphorylation inhibitor) and the cell membrane and nuclear membrane were crushed to lyse the cells. The insoluble protein fraction was removed by centrifugation, and the supernatant was mixed with SDS electrophoresis buffer and electrophoresis (SDS-PAGE) was performed to detect the protein with the desired antibody and to confirm the protein expression level.

[3] = tested on: U87-MG cells; assay: Matrigel invasion assay, U87-MG; format: cell-based, human; details: 24 hours, versus DMSO
Protocol: The growth factor-reduced Matrigel was diluted with a serum-free culture solution at a 1:3 ratio, transferred to a 24-well plate, and solidified at 37° C. for 5 hours. The cells were placed in a culture solution containing 1% serum and added to the solidified Matrigel, 600 μl of a culture solution containing 10% serum to which fibronectin was added at a concentration of […] was added thereto, and the cells were cultured for 24 hours. Thereafter, the cells were fixed and stained by adding Diffquick solution thereto and then observed under a Leica Application Suite microscope, and images were taken.

[4] = tested on: STAT92E; assay: Drosophila cell luciferase assay (10XSTAT92E-luciferase reporter); format: cell-based; details: compared with DMSO-treated group, concentration-dependent
Protocol: Drosophila cells (S2-NP, 24×3) used in the experiment were cultured as previously described (Kim B H, et al. Mol Cancer Ther. 7, 2672-2680 (2008)). S2-NP (Drosophila Schneider cell) cells were Drosophila-derived macrophage-like cells and were cultured in Schneider's medium. 24×3 cells were cell lines stably expressed by inserting 10XSTAT92E-luciferase and PolIII-Renilla luciferase-labeled plasmid DNA as reporter constructs into S2-NP cells and were cultured in a medium prepared by adding […] of geneticin to the same medium as that for S2-NP. S2-NP cells in which unpaired (upd) or HOPT^Tum-l as a ligand was expressed and 24×3 cells constructed with reporter constructs were mixed at a constant ratio and cultured for 24 hours in the presence of a compound, the expression level of STAT92E was measured using a luminometer, and the inhibition effect was compared with that of the DMSO-treated group.

STAT3 (Homo sapiens, UniProt P40763), sequence (P40763 whole entry, species assumed): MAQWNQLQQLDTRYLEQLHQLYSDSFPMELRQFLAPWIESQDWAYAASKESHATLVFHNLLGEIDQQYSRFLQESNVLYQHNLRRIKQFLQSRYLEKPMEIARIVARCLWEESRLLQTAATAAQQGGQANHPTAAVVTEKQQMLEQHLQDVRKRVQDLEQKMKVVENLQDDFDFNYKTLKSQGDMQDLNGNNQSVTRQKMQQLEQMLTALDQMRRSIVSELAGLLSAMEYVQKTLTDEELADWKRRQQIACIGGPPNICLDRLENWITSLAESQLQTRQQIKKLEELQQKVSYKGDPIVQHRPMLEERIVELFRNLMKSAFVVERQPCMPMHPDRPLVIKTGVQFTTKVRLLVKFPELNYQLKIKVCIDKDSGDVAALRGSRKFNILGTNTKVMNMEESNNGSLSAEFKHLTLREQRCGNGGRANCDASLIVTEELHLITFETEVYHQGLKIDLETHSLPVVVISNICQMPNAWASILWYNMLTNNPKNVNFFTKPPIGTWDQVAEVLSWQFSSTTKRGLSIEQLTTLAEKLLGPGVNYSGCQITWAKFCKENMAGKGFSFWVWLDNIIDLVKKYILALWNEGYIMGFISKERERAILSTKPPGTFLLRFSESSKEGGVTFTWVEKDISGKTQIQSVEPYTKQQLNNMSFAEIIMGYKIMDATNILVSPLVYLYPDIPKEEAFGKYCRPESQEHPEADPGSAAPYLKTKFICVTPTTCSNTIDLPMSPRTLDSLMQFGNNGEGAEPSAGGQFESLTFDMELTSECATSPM

`Clc1ccc(OCc2noc(C(Cl)(Cl)Cl)n2)c(Cl)c1` [ODZ10117, 3-(2,4-dichloro-phenoxymethyl)-5-trichloromethyl-[1,2,4]oxadiazole] was tested. Which STAT3 dimerization [1] did it give?
Its STAT3 dimerization is “inhibited STAT3 dimerization”.

What about the “STAT3 dimerization inhibitory efficacy compared with napabucasin” value [1] of the same compound?
The value was “superior STAT3 dimerization inhibitory efficacy to napabucasin”.

What about the “STAT3 inhibitory action (Western blot)” value [2] of the same compound?
The value was “judged to be extremely superior”.

And the cell invasion [3]?
The cell invasion was “significantly decreased cell invasion in both the two cell lines”.

What about the “promoter activity of STAT92E” value [4] of the same compound?
Its value is “significantly decreased the promoter activity of STAT92E”.
